From US20230405062A1, “GOS PRE-CONDITIONING L. REUTERI AND GOS IN FINAL FORMULATION” (BIOGAIA AB, priority 2021, published 2023)

Tests used:
[1] = system: L. reuteri DSM 17938; test: Survival of L. reuteri in colon (qPCR), short SHIME model; design: species or system Lactobacillus reuteri; settings: for survival of L. reuteri in the colon in presence or absence of GOS: 48 h incubation, qPCR, FIG. 4A
Excerpt: (§1) In this experiment, a simplified simulation of the continuous Simulator of the Human Microbial Ecosystem (SHIME®) was used. This SHIME® model has been extensively used for more than 20 years for both scientific and industrial projects and has been validated with in vivo parameters (see for example Van den Abbeele et al., Arabinoxylo-Oligosaccharides and Inulin Impact Inter-Individual Variation on Microbial Metabolism and Composition, Which Immunomodulates Human cells, J. Agric. Food chem. 2018, 66(5): 1121-1130).
(§2) For the current set of experiments a two-stage batch system mimicking the upper gastro-intestinal tract (Upper GIT, stomach and small intestine) and colonic conditions were used as simplified SHIME® system (FIG. 1). Cow milk-based toddler beverage, also called Growing-up-milk, containing minerals adapted for the age group was used in these studies.
Fresh fecal material was collected from an infant donor. Fecal suspension was prepared and mixed with a protectant. At the start of the short-term colonic incubation, the test ingredients (L. reuteri strain and Streptococcus thermophilus strain) were added to sugar-depleted nutritional medium containing basal nutrients present in the colon (e.g., host-derived glycans such as mucin).
L. reuteri strain and S. thermophilus strain were inoculated at 1×10^9 CFU/reactor. […]
(§3) L. reuteri strain and pre-conditioned L. reuteri strain were inoculated at 1x10^9 CFU/reactor. L. reuteri were quantified by plating on MRS medium, while S. thermophilus was plated on M17 medium supplemented with lactose. […] Quantities of L. reuteri and S. thermophilus powders were then calculated to target 1x10^9 CFU/colonic reactor. […]
(§4) Quantitative polymerase chain reaction (qPCR) was performed to selectively enumerate Lactobacilli and Streptococci. qPCR was performed at 0 h and after 48 h of colonic incubation.

[2] = system: S. thermophilus NCC2496; test: Survival of S. thermophilus in colon (qPCR), short SHIME model; design: species or system Streptococcus thermophilus; settings: 48 h incubation, FIG. 4A
Excerpt: as §1
as §2, with “studies. […]” for “studies.”
as §3, §4

Q: With “Lactobacillus reuteri DSM 17938 [L. reuteri]” as the substance, how does the “survival of L. reuteri in the colon in presence or absence of GOS” value [1] read?
A: The value was “enhanced by the presence of GOS”.

Q: What about the “survival of L. reuteri in the colon in presence or absence of GOS” value ([1]; listed as L. reuteri DSM17938) of the same substance?
A: Its value is “positive effect of GOS”.

Q: What about the “survival of L. reuteri in the colon in presence of GOS, pre-conditioned vs non-pre-conditioned” value ([1]; cell counts at 48 h, FIG. 4B) of the same substance?
A: Its value is “survives well”.

Q: How did the “survival of S. thermophilus in the colon in presence or absence of GOS” value [2] turn out when “Streptococcus thermophilus NCC2496 [S. thermophilus]” was run?
A: Its value is “impaired by the presence of GOS”.

Q: And the “survival of S. thermophilus in the colon in presence or absence of GOS” value ([2]; listed as Streptococcus thermophilus NCC2496)?
A: The value was “negative effect of GOS”.
